In this assay the target is T1, E3 ubiquitin-protein ligase XIAP [163-230]/[26-93] (Homo sapiens, UniProt P98170+P98170).
T1 construct: 163-230; 26-93
The assay is described as follows: Biological Assay. How it is done:
5000 PPC-1 cells were plated and grown overnight. Compounds were plated and 4 hrs later, TRAIL was added to half of the plate while RPMI was added to the other half of the plate as a control. Plates were return to the incubator for 24 hrs. Plates were removed from the incubator and placed on the bench for 30 min and then 25 uL of Cell Titer Glo were added per well. Plates were placed on a rocker and then read on a luminometer. 5000 MDA-MB-231 cells were plated per well. Compound was added and 4 hrs later, TRAIL was added at 5 ng/mL; RPMI was added for a minus TRAIL control. Plates were incubated an additional 24 hrs, removed to the bench for 30 min, and then 25 uL of cell titer glo was added per well. Plates were placed on a rocker and read on a luminometer. Data were fit using PRISM.

T1 sequence (P98170 26-93): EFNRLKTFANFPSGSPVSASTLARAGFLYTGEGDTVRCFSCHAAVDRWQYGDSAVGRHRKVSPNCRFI
T1 sequence (P98170 163-230): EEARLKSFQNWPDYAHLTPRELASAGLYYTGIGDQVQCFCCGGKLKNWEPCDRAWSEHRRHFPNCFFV

Take `CN[C@@H](C)C(=O)N[C@H]1CCCNC2CCC(C(=O)N[C@@H]3CCCc4ccccc43)N2C1=O` (stereo partly specified) [US11111270, Compound 16]: the Ki (commonly a dissociation constant, usually derived from enzyme kinetics or from competition with a known ligand) is “in the range around 37.5 µM”.

Source of the values: BindingDB's records for patent US11111270 (Sanford Burnham Prebys Medical Discovery Institute, 2021).
